Biological target: activated p38 (Homo sapiens, UniProt Q16539)
Assay: p38 inhibition assay: inhibition of phosphorylation of EGF receptor peptide
Format: biochemical
Details: compound behaviour in the assay
Procedure: p38 Inhibition Assays—Inhibition of Phosphorylation of EGF Receptor Peptide
This assay was carried out in the presence of 10 mM MgCl2, 25 mM β-glycerophosphate, 10% glycerol and 100 mM HEPES buffer at pH 7.6. For a typical IC50 determination, a stock solution was prepared containing all of the above components and activated p38 (5 nM). The stock solution was aliquoted into vials. A fixed volume of DMSO or inhibitor in DMSO (final concentration of DMSO in reaction was 5%) was introduced to each vial, mixed and incubated for 15 minutes at room temperature.
EGF receptor peptide, […], a phosphoryl acceptor in p38-catalysed kinase reaction (1), was added to each vial to a final concentration of 200 μM. The kinase reaction was initiated with ATP (100 μm) and the vials were incubated at 30C. After 30 minutes, the reactions were quenched with equal volume of 10% trifluoroacetic acid (TFA).
The phosphorylated peptide was quantified by HPLC analysis. Separation of the phosphorylated peptide from the unphosphorylated peptide was achieved on a reverse phase column (Deltapak, 5 μM, C18 100D, part no. 011795) with a binary gradient of water and acetonitrile, each containing 0.1% TFA. IC50 (concentration of inhibitor yielding 50% inhibition) was determined by plotting the % activity remaining against inhibitor concentration.

Sequence of activated p38 (Q16539 whole entry): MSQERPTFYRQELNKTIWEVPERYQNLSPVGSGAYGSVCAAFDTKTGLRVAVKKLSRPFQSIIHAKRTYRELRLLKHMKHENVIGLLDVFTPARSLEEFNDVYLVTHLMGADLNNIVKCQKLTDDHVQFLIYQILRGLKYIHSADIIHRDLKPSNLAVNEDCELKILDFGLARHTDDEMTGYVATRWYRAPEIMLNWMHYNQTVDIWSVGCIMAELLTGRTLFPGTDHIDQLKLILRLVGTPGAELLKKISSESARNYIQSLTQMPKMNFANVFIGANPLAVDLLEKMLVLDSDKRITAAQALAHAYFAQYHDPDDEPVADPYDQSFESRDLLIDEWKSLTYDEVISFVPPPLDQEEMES

Structure (SMILES)	observation in the p38 enzyme assay
O=c1c(-c2ccccc2F)cc2cnc(NN3CC4CCCC4C3)nc2n1Cc1ccc(F)cc1 (stereo not drawn) [Compound No. 13, 6-(2-Fluorophenyl)-2-(3-azabicyclo[3.3.0]oct-3-yl-amino)-8-(4-fluorobenzyl)-pyrido[2,3-d]pyrimidin-7(8H)-one]	formed a precipitate

System: TNF-α release from LPS-stimulated human peripheral blood mononuclear cells
Assay: Cell based assay for TNF-α release, LPS stimulation of human PBMNC's
Details: PBMC, LPS 20 ng/ml, overnight, ELISA, collective range for the listed compounds, units given within the value (μM to nM), read-out: IC50 (TNF-α release; printed as IC50 for p38 inhibitory activity)
Procedure: Cell based Assay for TNF-α release
Method of Isolation of Human Peripheral Blood Mononuclear Cells:
Human whole blood was collected in vacutainer tubes containing EDTA as an anti coagulant. A blood sample (7 ml) was carefully layered over 5 ml PMN Cell Isolation Medium (Robbins Scientific) in a 15 ml round bottom centrifuge tubes. The sample was centrifuged at 450-500×g for 30-35 minutes in a swing-out rotor at room temperature. After centrifugation the top band of cells were removed and washed 3 times with PBS w/o calcium or magnesium. The cells were centrifuged at 400×g for 10 minutes at room temperature. The cells were resuspended in Macrophage Serum Free Medium (Gibco BRL) at concentration of 2 million cells/ml.
LPS Stimulation of Human PBMNC's:
PBM cells (0.1 ml; 2 million/ml) were co-incubated with 0.1 ml of compound (10-0.41 μM, final concentration) for 1 hour in flat bottom 96 well microtiter plate. Compounds were dissolved in DMSO initially and diluted in TCM for a final concentration of 0.1% DMSO. LPS (Cal biochem, 20 ng/ml, final concentration) was then added at volume of 0.010 ml. Cultures were incubated overnight at 37° C.). Supernatant were then removed and tested by ELISA for TNF-α release. Viability was analyzed using MTT. After 0.1 ml supernatant was collected, 0.1 ml of 0.25 mg/ml of MTT was added to remaining 0.1 ml of cells. The cells were incubated at 37° C. for 2-4 hours, then the O.D was measured at 490-650 nm.
The TNF-α levels released in the culture medium was quantitated by ELISA. Inhibitory potency was expressed as IC50.

Structure (SMILES)	IC50 [µM]
COCCn1c(=O)c(-c2ccccc2C)cc2cnc(NN3CC4CCCC4C3)nc21 (stereo not drawn) [Compound No. 50, 6-(2-Methylphenyl)-2-(3-azabicyclo[3.3.0]oct-3-yl-amino)-8-(2-methoxyethyl)-pyrido[2,3-d]pyrimidin-7(8H)-one]	0.14 to 3
Cn1c(=O)c(-c2ccccc2Cl)cc2cnc(NN3CC4CCCC4C3)nc21 (stereo not drawn) [Compound No. 1, 6-(2-Chlorophenyl)-2-(3-azabicyclo[3.3.0]oct-3-yl-amino)-8-methylpyrido[2,3-d]pyrimidin-7(8H)-one]	0.14 to 3
O=c1c(-c2ccccc2F)cc2cnc(NN3CC4CCCC4C3)nc2n1C1CCCC1 (stereo not drawn) [Compound No. 22, 6-(2-Fluorophenyl)-2-(3-azabicyclo[3.3.0]oct-3-yl-amino)-8-(cyclopentyl)pyrido[2,3-d]pyrimidin-7(8H)-one]	0.14 to 3
O=c1c(-c2ccccc2F)cc2cnc(NN3CC4CCCC4C3)nc2n1CC1CC1 (stereo not drawn) [Compound No. 23, 6-(2-Fluorophenyl)-2-(3-azabicyclo[3.3.0]oct-3-yl-amino)-8-(cyclopropylmethyl)-pyrido[2,3-d]pyrimidin-7(8H)-one]	0.14 to 3
O=c1c(-c2ccccc2Cl)cc2cnc(NN3CC4CCCC4C3)nc2n1C1CC1 (stereo not drawn) [Compound No. 52, 6-(2-Chlorophenyl)-2-(3-azabicyclo[3.3.0]oct-3-yl-amino)-8-cyclopropyl-pyrido[2,3-d]pyrimidin-7(8H)-one]	0.14 to 3
Cn1c(=O)c(-c2ccc(F)cc2Cl)cc2cnc(NN3CC4CCCC4C3)nc21 (stereo not drawn) [Compound No. 71, 6-(2-Chloro-4-fluorophenyl)-2-(3-azabicyclo [3.3.0]oct-3-yl-amino)-8-methylpyrido[2,3-d]pyrimidin-7(8H)-one]	0.14 to 3
Cn1c(=O)c(-c2c(Cl)cccc2Cl)cc2cnc(NN3CC4CCCC4C3)nc21 (stereo not drawn) [Compound No. 68, 6-(2,6-Dichlorophenyl)-2-(3-azabicyclo[3.3.0]oct-3-yl-amino)-8-methylpyrido[2,3-d]pyrimidin-7(8H)-one]	0.14 to 3

Further lines, results first:

IC50 [µM]	Structure (SMILES)
0.14 to 3	CCOCCn1c(=O)c(-c2ccccc2C)cc2cnc(NN3CC4CCCC4C3)nc21 (stereo not drawn) [Compound No. 51, 6-(2-Methylphenyl)-2-(3-azabicyclo[3.3.0]oct-3-yl-amino)-8-(2-ethoxyethyl)pyrido[2,3-d]pyrimidin-7(8H)-one]
0.14 to 3	CCOC(=O)C(C)n1c(=O)c(-c2ccccc2C)cc2cnc(NN3CC4CCCC4C3)nc21 (stereo not drawn) [Compound No. 21, Ethyl 2-[6-(2-methylphenyl)-2-(3-azabicyclo [3.3.0]oct-3-yl-amino)-7-oxopyrido[2,3-d]pyrimidin-8(7H)-yl]propanoate]
0.14 to 3	CCOCCn1c(=O)c(-c2ccccc2Cl)cc2cnc(NN3CC4CCCC4C3)nc21 (stereo not drawn) [Compound No. 25, 6-(2-Chlorophenyl)-2-(3-azabicyclo[3.3.0]oct-3-yl-amino)-8-(2-ethoxyethyl)pyrido[2,3-d]pyrimidin-7(8H)-one]
0.14 to 3	CCCCS(=O)(=O)NCCn1c(=O)c(-c2ccccc2C)cc2cnc(NN3CC4CCCC4C3)nc21 (stereo not drawn) [Compound No. 40, N-{2-[2-(3-azabicyclo[3.3.0]oct-3-yl-amino)-6-(2-methylphenyl)-7-oxopyrido[2,3-d]pyrimidin-8(7H)-yl]ethyl}butane-1-sulfonamide]
0.14 to 3	Cn1c(=O)c(-c2ccccc2[N+](=O)[O-])cc2cnc(NN3CC4CCCC4C3)nc21 (stereo not drawn) [Compound No. 69, 6-(2-Nitrophenyl)-2-(3-azabicyclo [3.3.0]oct-3-yl-amino)-8-methyl-pyrido[2,3-d]pyrimidin-7(8H)-one]
0.14 to 3	CCOC(=O)C(C)n1c(=O)c(-c2ccccc2F)cc2cnc(NN3CC4CCCC4C3)nc21 (stereo not drawn) [Compound No. 20, Ethyl 2-[6-(2-fluorophenyl)-2-(3-azabicyclo[3.3.0]oct-3-yl-amino)-7-oxopyrido[2,3-d]pyrimidin-8(7H)-yl]propanoate]
0.14 to 3	CCOC(=O)Cn1c(=O)c(-c2ccccc2C)cc2cnc(NN3CC4CCCC4C3)nc21 (stereo not drawn) [Compound No. 44, Ethyl[2-(3-azabicyclo[3.3.0]oct-3-yl-amino)-6-(2-methylphenyl)-7-oxopyrido[2,3-d]pyrimidin-8(7H)-yl]acetate]
0.14 to 3	Cc1ccccc1-c1cc2cnc(NN3CC4CCCC4C3)nc2n(CC(=O)NC2CCC2)c1=O (stereo not drawn) [Compound No. 47, N-Cyclobutyl-2-[2-(3-azabicyclo[3.3.0]oct-3-yl-amino)-6-(2-methylphenyl)-7-oxopyrido[2,3-d]pyrimidin-8(7H)-yl]acetamide]
0.14 to 3	O=c1c(Oc2ccccc2F)cc2cnc(NN3CC4CCCC4C3)nc2n1C1CC1 (stereo not drawn) [Compound No. 59, 6-(2-Fluorophenoxy)-2-(3-azabicyclo[3.3.0]oct-3-yl-amino)-8-cyclopropyl-pyrido[2,3-d]pyrimidin-7(8H)-one]

System: not given
Assay: not given
Details: not given

Structure (SMILES)	melting point [°C]
Cc1ccccc1-c1cc2cnc(NN3CC4CCCC4C3)nc2n(C)c1=O (stereo not drawn) [Compound No. 2, 6-(2-Methylphenyl)-2-(3-azabicyclo[3.3.0]oct-3-yl-amino)-8-methylpyrido[2,3-d]pyrimidin-7(8H)-one]	69.8 to 79.8

Reference: patent publication US20090036472A1, “AZABICYCLO DERIVATIVES AS ANTI-INFLAMMATORY AGENTS” (priority 2005, published 2009)
